Entries after “also recorded” stand apart in the source; their conditions may differ. Where no end group is shown, it is not given here.
Key:
[1] = Toxicity of Epi-1 alone injected i.p. in adult mice
Procedure: Six-week-old adult C3H/HeN mice were randomly divided into five groups of 10 mice each. […] After 14 days, a re-challenge was carried out on surviving mice with 50× the LD50 of JEV. Mouse survival and activity were monitored on a daily basis for up to 25 days after the primary injection. For serological studies, serum was collected on days 4, 7, and 21 after treatment. A similar approach was followed to test immunized mice.
JEV was co-injected with or without Epi-1 at various dosages (50, 100, and 200 μg/ml) into adult mice and subsequently boosted (a second JEV challenge without Epi-1) on day 14. The survival rate of mice was recorded for 25 days.

[2] = test system: BHK-21 cells; assay: Cell proliferation assay, Epi-1 alone on BHK-21 cells; format: cell-based, baby hamster; conditions: Epi up to 1 μg/ml, 48 h, n=3
Source text: Baby hamster kidney (BHK)-21 cells were purchased and maintained as per American Type Culture Collection (ATCC no. CCL10, Manassas, Va., USA) instructions. Female C3H/HeN mice, purchased from the National Laboratory Animal Breeding and Research Center (Taiwan) and BioLASCO (Taipei, Taiwan), were housed at the Laboratory Animal Facility, National Taiwan Ocean University NTOU; Keelung, Taiwan). Mice were maintained in pathogen-free sterile isolators according to institutional guidelines, and all food, water, caging, and bedding were sterilized before use. All procedures were approved by the Animal Care and Use Committee of NTOU. The 50% lethal dose (LD50) of JEV in female C3H/HeN mice was determined. The Beijing-1 JEV strain was maintained in suckling mouse brains as previously described.
BHK-21 cells in 48-well plates were assayed with CellTiter 96 Aqueous One Solution (Promega, Madison, Wis., USA) following the vendor's instructions. Epi-1 was administered together with Japanese encephalitis virus (JEV) as co-treatment; Epi-1 was administered 24 h prior to (prophylaxis) or after (curative) the JEV inoculation. After blank value subtraction, the percentage survival against control cells was calculated. […]
The effects of Epi-1 on JEV in BHK-21 cells were studied. […] At 48 h, cell viability of JEV infection was determined (FIG. 1a). […]

Question: With “GFIFHIIKGLFHAGKMIHGLV [Epi-1, epinecidin-1]” as the sequence, how does the survival and behaviour ([1]; 200 μg/ml Epi-1 alone i.p., n=10) read?
Answer: all mice survived and behaved normally

Question: And the toxic effects ([1]; Epi-1 alone, adult mice)?
Answer: No toxic effects were noted; also recorded: no detectable cytotoxicity

Question: What about the cell viability [2] of the same sequence?
Answer: did not affect cell viability; also recorded: no detectable cytotoxicity
